Laboratory results reported in ChEMBL document CHEMBL1697781, “Assessment of the health effects of chemicals in humans: II. Construction of an adverse effects database for QSAR modeling” (Curr Drug Discov Technol, 2004).

Assays:
Conditions in all cases: human; call rule not given here
Hepatotoxicity [1] = test: FDA HLAED, liver enzyme composite activity
Hepatotoxicity [2] = test: FDA HLAED, alkaline phosphatase increase
Hepatotoxicity [3] = test: FDA HLAED, serum glutamic oxaloacetic transaminase (SGOT) increase
Hepatotoxicity [4] = test: FDA HLAED, serum glutamic pyruvic transaminase (SGPT) increase
Hepatotoxicity [5] = test: FDA HLAED, lactate dehydrogenase (LDH) increase
Hepatotoxicity [6] = test: FDA HLAED, gamma-glutamyl transferase (GGT) increase
Wherever GGT Increase - Index Value is given: reference of the scale not given here.
Wherever LDH Increase - Index Value is given: reference of the scale not given here.

| Compound | Composite Activity - Active (Hepatotoxicity [1]) | Composite Activity - Marginal (Hepatotoxicity [1]) | Composite Activity - Score (Hepatotoxicity [1]) | Alkaline Phosphatase Increase - Activity Score (Hepatotoxicity [2]) | Alkaline Phosphatase Increase - Index Value (Hepatotoxicity [2]) | Alkaline Phosphatase Increase - Number of Reports (Hepatotoxicity [2]) | SGOT Increase - Activity Score (Hepatotoxicity [3]) | SGOT Increase - Index Value (Hepatotoxicity [3]) | SGOT Increase - Number of Reports (Hepatotoxicity [3]) | SGPT Increase - Activity Score (Hepatotoxicity [4]) | SGPT Increase - Index Value (Hepatotoxicity [4]) | SGPT Increase - Number of Reports (Hepatotoxicity [4]) | LDH Increase - Activity Score (Hepatotoxicity [5]) | LDH Increase - Index Value (Hepatotoxicity [5]) | LDH Increase - Number of Reports (Hepatotoxicity [5]) | GGT Increase - Activity Score (Hepatotoxicity [6]) | GGT Increase - Index Value (Hepatotoxicity [6]) | GGT Increase - Number of Reports (Hepatotoxicity [6]) | other results |
| --- | --- | --- | --- | --- | --- | --- | --- | --- | --- | --- | --- | --- | --- | --- | --- | --- | --- | --- | --- |
| CC(C)(C)c1ccc(C(O)CCCN2CCC(C(O)(c3ccccc3)c3ccccc3)CC2)cc1 (stereo unspecified) [TERFENADINE] | 0 | 0 | Inactive | Inactive | 0.6 | >= 4 | Inactive | 0.7 | >= 4 | Inactive | 0.7 | >= 4 | Inactive | 0.2 | < 4 | Inactive | 0.1 | < 4 | – |
| C[C@]12CC[C@H]3[C@@H](CCC4=CC(=O)CC[C@@]43C)[C@@H]1CC[C@@H]2OC(=O)CCC1CCCC1 [TESTOSTERONE CYPIONATE] | 0 | 0 | Inactive | Inactive | 0 | < 4 | Inactive | 4.8 | < 4 | Inactive | 7.2 | < 4 | Inactive | 2.4 | < 4 | Inactive | 4.8 | < 4 | – |
| CCCCCCC(=O)O[C@H]1CC[C@H]2[C@@H]3CCC4=CC(=O)CC[C@]4(C)[C@H]3CC[C@]12C [TESTOSTERONE ENANTHATE] | 0 | 0 | Inactive | Inactive | 0 | < 4 | Inactive | 4.8 | < 4 | Inactive | 7.2 | < 4 | Inactive | 2.4 | < 4 | Inactive | 4.8 | < 4 | – |
| CCCCCCCCCC(=O)CC(=O)O[C@H]1CC[C@H]2[C@@H]3CCC4=CC(=O)CC[C@]4(C)[C@H]3CC[C@]12C [TESTOSTERONE KETOLAURATE] | 0 | 0 | Inactive | Inactive | 0 | < 4 | Inactive | 4.8 | < 4 | Inactive | 7.2 | < 4 | Inactive | 2.4 | < 4 | Inactive | 4.8 | < 4 | – |
| C[C@]12CC[C@H]3[C@@H](CCC4=CC(=O)CC[C@@]43C)[C@@H]1CC[C@@H]2OC(=O)Cc1ccccc1 [TESTOSTERONE PHENYLACETATE] | 0 | 0 | Inactive | Inactive | 0 | < 4 | Inactive | 4.8 | < 4 | Inactive | 7.2 | < 4 | Inactive | 2.4 | < 4 | Inactive | 4.8 | < 4 | – |
| CCC(=O)O[C@H]1CC[C@H]2[C@@H]3CCC4=CC(=O)CC[C@]4(C)[C@H]3CC[C@]12C [TESTOSTERONE PROPIONATE] | 0 | 0 | Inactive | Inactive | 0 | < 4 | Inactive | 4.8 | < 4 | Inactive | 7.2 | < 4 | Inactive | 2.4 | < 4 | Inactive | 4.8 | < 4 | – |
| C[C@]12CC[C@H]3[C@@H](CCC4=CC(=O)CC[C@@]43C)[C@@H]1CC[C@@H]2O [TESTOSTERONE] | 0 | 0 | Inactive | Inactive | 0 | < 4 | Inactive | 4.8 | < 4 | Inactive | 7.2 | < 4 | Inactive | 2.4 | < 4 | Inactive | 4.8 | < 4 | – |
| Cn1c(=O)c2[nH]cnc2n(C)c1=O.O [THEOPHYLLINE] | 0 | 0 | Inactive | Inactive | 0 | < 4 | Inactive | 0 | < 4 | Inactive | 0 | < 4 | Inactive | 0 | < 4 | Inactive | 0 | < 4 | – |
| Clc1ccccc1CN1CCc2sccc2C1 [TICLOPIDINE] | – | – | – | Inactive | 0 | < 4 | Inactive | 0 | < 4 | Inactive | 0 | < 4 | Inactive | 0 | < 4 | Inactive | 0 | < 4 | Composite Activity - Active (Hepatotoxicity [1]; Liver): 0; Composite Activity - Marginal (Hepatotoxicity [1]; Liver): 0; Composite Activity - Score (Hepatotoxicity [1]; Liver): Inactive |
| CC(C)(C)NC[C@H](O)COc1nsnc1N1CCOCC1 [TIMOLOL] | 0 | 0 | Inactive | Inactive | 0.1 | < 4 | Inactive | 0.1 | < 4 | Inactive | 0.1 | < 4 | Inactive | 0.1 | < 4 | Inactive | 0 | < 4 | – |
| Clc1ccc(C(Cn2ccnc2)OCc2ccsc2Cl)c(Cl)c1 (stereo unspecified) [TIOCONAZOLE] | – | – | – | Inactive | 0 | < 4 | Inactive | 0 | < 4 | Inactive | 0 | < 4 | Inactive | 0 | < 4 | Inactive | 0 | < 4 | Composite Activity - Active (Hepatotoxicity [1]; Liver): 0; Composite Activity - Marginal (Hepatotoxicity [1]; Liver): 0; Composite Activity - Score (Hepatotoxicity [1]; Liver): Inactive |
| CC(S)C(=O)NCC(=O)O (stereo unspecified) [TIOPRONIN] | 0 | 0 | Inactive | Inactive | 0 | < 4 | Inactive | 0 | < 4 | Inactive | 0 | < 4 | Inactive | 0 | < 4 | Inactive | 0 | < 4 | – |
